Here are results for nine compounds from PMC4180753, “Evaluation of Inhibitory Action of Novel Non β-Lactam Inhibitor against Klebsiella pneumoniae Carbapenemase (KPC-2)” (PLoS ONE, 2014).

Values after ≈ are worked out from the molar mass of the structure shown. Where two headings read alike, the source gives them in different places.

The target of data set [1] is T1, KPC-2 (Klebsiella pneumoniae, UniProt Q9F663). Briefly: IC50 and Ki on purified KPC-2 (nitrocefin hydrolysis). It is filed as biochemical. Also on record: inferred from Ni-NTA purification and the pQE-2 vector) (N); made in house; host or cells: E. coli BL21 (DE3). To be noted: for IC50: IC50, 1 nM purified KPC-2, 5 minutes pre-incubation, 30°C, pH 7.0, nitrocefin substrate (so in the source). How it is done:
The 50% inhibitory concentration (IC50) was defined as the concentration of the inhibitor that inhibited hydrolytic activity of the enzyme by 50%.
The inhibition constant, Ki, was calculated from the IC50 value by applying the Cheng-Prusoff correction

For data set [2], the system named is E. coli BL21 transformants harbouring bla KPC-2. Briefly: CLSM Live/Dead cell staining (PI/SYTO 9). Type of data set: cell-based, Escherichia coli. The settings on record: 4 hours. How it is done:
The control was taken without any drug. The media was inoculated and incubated at 37^οC for 4 hours. The media was removed and dishes were gently washed with MOPS (pH 7.0) to wash off extra media. Cells were then stained with propidium iodide (PI) and SYTO 9 (1∶1) for one hour. The fluorescence emission was observed using confocal scanning laser microscope FluoView FV1000 (Olympus, Tokyo, Japan). The optimal excitation wavelengths were […] and the optimal emission wavelengths were 500 and 610 nm, respectively. The images were obtained from atleast three randomly picked positions. The images of the control and in presence of known as well as novel inhibitors were averaged and compared.

The test system of data set [3] is Klebsiella pneumoniae NP6 (clinical strain, KPC-2). Briefly: microbe, parasite or virus in culture. It is filed as cell-based.
In data set [4] the test system is Klebsiella pneumoniae MTCC 432. The experiment in a line: MIC, susceptible MTCC strain. Type of data set: cell-based.
Data set [5] relates to E. coli BL21 (Null plasmid). The experiment in a line: microbe, parasite or virus in culture. Type of data set: cell-based. To be noted: Escherichia coli, inhibitors at fixed concentration of 4 µg/ml. How it is done:
(§1) The Minimum Inhibitory Concentrations (MIC) of recombinant BL21(DE3) cells harboring bla KPC-2 gene were determined by micro dilution method for different carbapenems alone and in combination with inhibitors (Clavulanic acid, Sulbactam, Tazobactam, ZINC01807204 and ZINC02318494) against BL21 control cells (cells with null vector). The recombinant E. coli cells were induced with IPTG prior to performing experiments. The antimicrobial agents, imipenem, meropenem, ertapenem, clavulanic acid, sulbactam and tazobactam were obtained from Sigma Aldrich (USA) and compounds ZINC01807204 and ZINC02318494 were procured from Vitas M (Netherlands). The inhibitors were taken at a fixed concentration of 4 µg/ml.

The test system of data set [6] is E. coli BL21 transformed with recombinant bla KPC-2 (pQE2-KPC-2). Briefly: microbe, parasite or virus in culture. It is filed as cell-based, Escherichia coli. To be noted: for MIC of the carbapenem in combination with screened inhibitors (ZINC01807204 and ZINC02318494) / MIC: BL21 (pQE2-KPC-2); for MIC of the carbapenem in combination with screened inhibitors (ZINC01807204 and ZINC02318494) / reduction in MIC of the carbapenem in combination with screened compounds (ZINC01807204 and ZINC02318494): inhibitors 4 µg/ml; for MIC: inhibitors at fixed concentration of 4 µg/ml; for reduction in MIC of the carbapenem in combination with screened compounds (ZINC01807204 and ZINC02318494): KPC-2 expressing BL21 cells. How it is done:
A carbapenem resistant clinical strain of K. pneumoniae (NP6), previously characterised in our lab was procured from Jawaharlal Nehru Medical College (JNMC), Aligarh. […] Escherichia coli (DH5α) and E. coli BL21 (DE3) were used for cloning and protein expression experiments respectively. Minimum inhibitory concentration (MIC) and Confocal Laser Scanning Microscopy (CLSM) experiments were conducted on E.coli (BL21) cells expressing recombinant KPC-2 β-lactamase.
as §1

Data set [7] concerns the target T1, KPC-2. To be noted: nitrocefin as reporter substrate of KPC-2.
A short description of data set [8]: Solubility observed in the inhibition assay. It is filed as physicochemical. To be noted: at higher concentrations; reason IC50 and Ki could not be determined.
Where [9] appears, read: sub-MIC meropenem in combination with the inhibitor (4 µg/ml).
The mark [10] stands for this setting: MTCC432, MTCC 432, inhibitors at fixed concentration of 4µg/ml, read-out: MIC.

T1 sequence (Q9F663 25-293 limits assumed): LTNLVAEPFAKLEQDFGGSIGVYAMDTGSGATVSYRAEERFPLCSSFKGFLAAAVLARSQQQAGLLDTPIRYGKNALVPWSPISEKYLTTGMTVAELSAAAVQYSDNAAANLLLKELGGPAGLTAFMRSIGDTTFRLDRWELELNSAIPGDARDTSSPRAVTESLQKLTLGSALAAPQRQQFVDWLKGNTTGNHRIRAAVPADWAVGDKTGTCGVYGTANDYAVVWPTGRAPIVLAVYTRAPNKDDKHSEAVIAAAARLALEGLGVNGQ

At KPC-2 [1], `C[C@]1(Cn2ccnn2)[C@H](C(=O)O)N2C(=O)C[C@H]2S1(=O)=O` [Tazobactam] returned a Ki of 21.6 µM and an IC50 of 98.8 µM. For the same compound, the “cells green with normal cell membranes” value in data set [2] (setting [9]) is recorded as 60–70%.

Consider `O=C(O)[C@H]1/C(=C/CO)O[C@@H]2CC(=O)N21` [Clavulanic acid], for which, on KPC-2 [1], affinity was put at a Ki of 30 µM and half-maximal inhibition (IC50) was put at 137 µM.

As for `C[C@@H](O)[C@H]1C(=O)N2C(C(=O)O)=C(S[C@@H]3CN[C@H](C(=O)Nc4cccc(C(=O)O)c4)C3)[C@H](C)[C@H]12` [Ertapenem, ertapenem], the MIC in data set [3] is ≥ 256 µg/mL; in data set [4] (setting [10]) it was 0.0625 µg/mL (≈ 0.131 µM); in data set [5], 0.25 µg/mL; in data set [6] it was ≥128 µg/mL; in data set [6] (Escherichia coli) it was 128 µg/mL. For the same compound, the “MIC of the carbapenem in combination with screened inhibitors (ZINC01807204 and ZINC02318494)” value in data set [6] was found to be 16 µg/mL. Also, in data set [6], the “reduction in MIC of the carbapenem in combination with screened compounds (ZINC01807204 and ZINC02318494)” value (“reduction in MIC of the carbapenem” for short) was 8 fold.

As to `C[C@@H](O)[C@H]1C(=O)N2C(C(=O)O)=C(S[C@@H]3CN[C@H](C(=O)N(C)C)C3)[C@H](C)[C@H]12` [Meropenem, meropenem], in data set [2] (sub-MIC concentration of meropenem alone), the “cells green with normal cell membranes” value is on record as 60–70%. Further, the MIC in data set [3] is ≥ 256 µg/mL; in data set [4] (MTCC432) it was 0.125 µg/mL (≈ 0.326 µM); in data set [5], 0.125 µg/mL; in data set [6], ≥64 µg/mL; in data set [6] (Escherichia coli), 64 µg/mL. Moreover, the “MIC of the carbapenem in combination with screened inhibitors (ZINC01807204 and ZINC02318494)” value in data set [6] worked out at 8 µg/mL. Further, in data set [6], the “reduction in MIC of the carbapenem” value was 8 fold and eight fold.

As for `O=C(Cc1cccs1)N[C@@H]1C(=O)N2C(C(=O)O)=C(/C=C/c3ccc([N+](=O)[O-])cc3[N+](=O)[O-])CS[C@H]12` [nitrocefin], the Km on KPC-2 [7] was found to be 28 ± 6 µM.

On KPC-2 [1], `CC1(C)[C@H](C(=O)O)N2C(=O)C[C@H]2S1(=O)=O` [Sulbactam] gave a Ki of 23.2 µM and an IC50 of 106 µM.

On KPC-2 [1], `CC(=O)Nc1ccc(S(=O)(=O)Nc2ccccc2NS(=O)(=O)c2ccc(NC(C)=O)cc2)cc1` [ZINC01807204] gave a Ki of 43.8 µM and an IC50 of 200 µM. Further, the “cells binding PI and Syto 9 (yellowish orange, affected)” value in data set [2] (setting [9]) is 90–95%.

`C[C@@H](O)[C@H]1C(=O)N2C(C(=O)O)=C(SCCN=CN)C[C@H]12` [Imipenem, imipenem]: the MIC is ≥ 256 µg/mL in data set [3]; 0.0625 µg/mL (≈ 0.209 µM) in data set [4] (setting [10]); 0.25 µg/mL in data set [5]; ≥64 µg/mL in data set [6]; 64 µg/mL in data set [6] (Escherichia coli). In data set [6], the “MIC of the carbapenem in combination with screened inhibitors (ZINC01807204 and ZINC02318494)” value was 16 µg/mL. For the same compound, in data set [6], the “reduction in MIC of the carbapenem” value is reported as “four fold”.

Take `CC(C)[C@H](NS(=O)(=O)c1ccc2c(c1)Cc1cc(S(=O)(=O)N[C@H](C(=O)O)C(C)C)ccc1-2)C(=O)O` [ZINC02318494]: the “cells binding PI and Syto 9 (yellowish orange, affected)” value in data set [2] (setting [9]) is given as 90–95%. In addition, the solubility result in data set [8] is recorded as “poor solubility at higher concentrations”.

What is called Ki is the equilibrium dissociation constant of an inhibitor or competing ligand from its target. High values mean weaker binding, low ones tighter binding. The IC50 is the concentration needed to halve the response being measured. Read a high IC50 as a need for much substance. A word on the Km: it is the substrate concentration at which the rate is half of its maximum.
